Source: US12668594B2, “TYK2 inhibitors and uses thereof” (Sudo Biosciences Limited, priority 2020, dated 2026)

Experiments:
[1] = system: IL-2; test: Selectivity assay (SEAP) IL-2 reporter cells; format: cell-based; conditions: Homo sapiens, IL-2 reporter cells on HEK293 background, read-out: Selectivity assays (SEAP) nM or E-Max % IL-2
[2] = target: T1, JAK1-JH1 (Homo sapiens, UniProt P23458); test: HTRF-based selectivity assay, JAK1 catalytic domain; format: biochemical; conditions: kinase domain (JH1), ATP 21.43 μM
T1 construct: recombinant purified His or GST-tagged catalytic domain for each enzyme; made in house
T1 sequence (P23458 875-1153 limits assumed): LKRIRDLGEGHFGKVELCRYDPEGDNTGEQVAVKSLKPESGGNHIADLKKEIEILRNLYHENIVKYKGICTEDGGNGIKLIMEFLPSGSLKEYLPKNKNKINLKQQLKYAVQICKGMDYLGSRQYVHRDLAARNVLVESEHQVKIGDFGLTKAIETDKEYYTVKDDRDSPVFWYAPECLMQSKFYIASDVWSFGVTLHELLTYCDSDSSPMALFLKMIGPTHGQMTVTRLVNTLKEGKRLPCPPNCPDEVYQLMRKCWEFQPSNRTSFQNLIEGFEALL
Protocol: (§1) The ability of compounds to inhibit the activity of JAK1, JAK2, JAK3 and TYK2 is measured using a recombinant purified His or GST-tagged catalytic domain for each enzyme (JAK1, JAK2 and TYK2 are generated in-house; JAK3 was purchased from Carna biosciences, Cat #08-046) in an HTRF format biochemical assay. The reactions employs a commercial peptide substrate from Cisbio (Cat #62TK0PEC). The basic assay protocol is as follows: first, 2.5 µL of diluted compounds (4×) in DMSO are dispensed into a 384-well Optiplate. Next, 2.5 μL of enzyme (final concentrations for enzymes are: TYK2-700 ng/mL, JAK1-80.6 ng/mL, JAK2-2.1 ng/mL and JAK3-171.8 ng/mL) is added and incubated at RT for 5-20 min. Finally, 5 μl of mixture of 2×ATP [Final concentration 20 μM for TYK2, 21.43 μM for JAK1, 14.7 μM for JAK2 and 2.12 μM for JAK3]+2× Substrate [Final concentration 217 nM for TYK2, 454.7 nM for JAK1, 200 nM for JAK2 and 257.4 nM for JAK3] is added to 384 well Optiplate. Composition of Kinase assay buffer used in the assay is as follows: HEPES 50 mM, EGTA 1 mM, MgCl2 10 mM, DTT2 mM, Tween-20 0.010 and water. Then the plates are shaken and then incubated at 26.5° C. for 60 min. At the end of the incubation, 10 μL of mixture of 2× detection mix [(EU3+Cryptate (1×)+Streptavidin-XL665 (final concentration: 62.5 nM) (HTRF KinEASE-TK kit Cat #62TK0PEC)] is added to the assay plate, shaken and incubated at 26.5° C. for 60 min. Plates are then read on a Perkin Elmer Envision for HTRF signal (665 nm reading/615 nm reading). After normalization to untreated controls, the percent inhibition of the HTRF signal at each compound concentration is calculated. The plot of percent inhibition versus the log of compound concentration is fit with a 4-parameter dose response equation to calculate IC50 values.

[3] = system: IFN-γ-pSTAT1; test: STAT phosphorylation assay IFN-γ-pSTAT1; format: cell-based; conditions: Homo sapiens, 0.25 h; IFN-γ (50 ng/ml) 15 min, phospho-STAT1 Western blot normalized to GAPDH; read-out: Selectivity assays (STATs) % Inhibition IFN-γ-pSTAT1
Protocol: (§2) 0.3 to 0.5×10^6 Reporter cells (IL-23, IL-2, IFNα or IFNγ on HEK293 background purchased from InvivoGen) were seeded per well in 0.8 mL of DMVEM cell medium supplemented with 100 U/ml-100 μg/ml Pen-Strep and 10% FBS in 12 or 6-well plates and incubated overnight at 370 C, 5% CO2, 95% humidity. 0.1 mL test compounds serially diluted in DMSO and further diluted (10×) in intermediate plate containing cell treatment medium were prepared and added to the wells. The plates were incubated at 37° C. for 1 hr. Control wells contained 1′% DMSO prepared in cell medium. Post incubation, respective reporter cells were stimulated with 0.1 mL of either IL-23 (50 ng/ml; Miltenyl Biotech, cat #130-095-758) for 45 min or IL-2 (20 ng/ml) (Miltenyl Biotech, cat #130-097-742) for 15 min or IFNα/β (10 ng/ml) (Invivogen, cat #rcyc-hifna2b) for 15 min or IFN-γ (50 ng/ml) (Invivogen, cat #rcyec-hifng) for 15 min. Post stimulation cells were washed with DPBS once and lysed with 100 μL of RIPA buffer and placed on ice for 5 min. The lysates were then transferred to 1.5 mL Eppendorf tubes and centrifuged for 5 minutes at 10000 rpm at 4° C. and the supernatants either stored at −80° C. or used for protein estimation.
Samples were diluted 5× in cell lysis buffer and total protein concentration was determined in 96-well using Bradford Protein Assay following manufacturer's instructions. Western blot assay was performed using Protein Simple Wes Master Kit (SM-W004/DM-001) and device, following manufacturer's instructions. 1 to 2 mg/mL of total proteins were loaded per sample in 4 μL volume; phospho-STAT1, 3 or 5 antibodies (1:25) and GAPDH antibodies were diluted as indicated.
(§3) Western blot results were analysed using Compass 2.7.1 software and phospho-STAT quantity (AUC values) was normalized to GAPDH quantity (AUC values) for each sample.

[4] = target: T2, JAK2-JH1 (Homo sapiens, UniProt O60674); test: HTRF-based selectivity assay, JAK2 catalytic domain; format: biochemical; conditions: kinase domain (JH1), ATP 14.7 μM
T2 construct: recombinant purified His or GST-tagged catalytic domain for each enzyme; made in house
T2 sequence (O60674 849-1124 limits assumed): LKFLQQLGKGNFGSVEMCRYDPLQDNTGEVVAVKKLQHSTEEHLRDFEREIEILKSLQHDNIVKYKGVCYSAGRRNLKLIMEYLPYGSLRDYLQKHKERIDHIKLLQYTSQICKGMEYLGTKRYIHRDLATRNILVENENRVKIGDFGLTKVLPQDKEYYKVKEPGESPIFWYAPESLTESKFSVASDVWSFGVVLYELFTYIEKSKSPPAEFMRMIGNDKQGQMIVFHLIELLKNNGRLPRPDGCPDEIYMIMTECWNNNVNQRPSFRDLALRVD
Protocol: as §1

[5] = target: T3, TYK2 (Homo sapiens, UniProt P29597); test: HEK-Blue IFNα/β reporter assay (SEAP) for TYK2 pseudokinase inhibition; format: cell-based; conditions: HEK-Blue IFNα/β cells, 1 ng/mL human recombinant IFNα
T3 sequence (P29597 whole entry): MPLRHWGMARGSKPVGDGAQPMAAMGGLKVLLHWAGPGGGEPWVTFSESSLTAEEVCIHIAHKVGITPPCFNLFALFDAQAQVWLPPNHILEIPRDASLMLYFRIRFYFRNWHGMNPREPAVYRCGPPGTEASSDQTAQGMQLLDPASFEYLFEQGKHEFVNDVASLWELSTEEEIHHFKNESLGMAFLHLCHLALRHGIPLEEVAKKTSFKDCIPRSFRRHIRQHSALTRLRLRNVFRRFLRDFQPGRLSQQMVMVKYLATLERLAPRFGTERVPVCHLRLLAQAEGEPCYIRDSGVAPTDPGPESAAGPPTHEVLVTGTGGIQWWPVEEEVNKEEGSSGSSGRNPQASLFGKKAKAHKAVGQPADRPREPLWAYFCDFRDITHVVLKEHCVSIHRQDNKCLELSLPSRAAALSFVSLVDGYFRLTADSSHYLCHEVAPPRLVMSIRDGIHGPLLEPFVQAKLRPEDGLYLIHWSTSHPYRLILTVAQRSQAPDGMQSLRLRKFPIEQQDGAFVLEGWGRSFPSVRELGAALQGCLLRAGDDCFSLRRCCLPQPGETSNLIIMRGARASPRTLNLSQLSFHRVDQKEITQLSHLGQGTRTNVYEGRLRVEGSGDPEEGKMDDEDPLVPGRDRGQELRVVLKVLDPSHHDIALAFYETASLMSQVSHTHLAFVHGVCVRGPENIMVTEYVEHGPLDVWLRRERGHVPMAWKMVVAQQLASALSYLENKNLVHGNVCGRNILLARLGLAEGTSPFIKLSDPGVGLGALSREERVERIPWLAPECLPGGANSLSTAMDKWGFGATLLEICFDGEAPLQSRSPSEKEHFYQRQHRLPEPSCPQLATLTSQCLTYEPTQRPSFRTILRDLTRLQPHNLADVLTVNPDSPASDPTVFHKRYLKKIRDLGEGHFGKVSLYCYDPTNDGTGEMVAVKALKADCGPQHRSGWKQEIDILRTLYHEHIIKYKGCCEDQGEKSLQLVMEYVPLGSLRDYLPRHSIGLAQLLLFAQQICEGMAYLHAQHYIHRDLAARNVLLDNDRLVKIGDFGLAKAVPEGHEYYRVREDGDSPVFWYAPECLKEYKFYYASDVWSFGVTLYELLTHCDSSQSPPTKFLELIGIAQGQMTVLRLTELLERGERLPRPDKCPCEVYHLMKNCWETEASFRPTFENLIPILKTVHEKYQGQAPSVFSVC
Procedure, shortened: (§4)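 HEK-Blue cells carrying cytokine receptor and STAT3 or STAT1 SEAP reporter, pretreated 60 min with compound, then stimulated with 10 ng/mL IL-23 (22–24 h) or 1 ng/mL IFNα (16–18 h). SEAP read with QUANTI-Blue; IC50 by non-linear regression versus no-inhibitor and unstimulated controls.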

[6] = target: T3, TYK2; test: HEK-Blue IL-23 reporter assay (SEAP) for TYK2 pseudokinase inhibition; format: cell-based; set-up: HEK-Blue™ IL-23 and IFNα/β cells with a stably-integrated cytokine receptor and STAT3 or STAT1; host or cells: HEK-Blue IL-23 / HEK-Blue IFNα/β cells (HEK293 background); conditions: HEK-Blue IL-23 cells, 10 ng/mL human recombinant IL-23, SEAP reporter; read-out: IL23 IC50
Procedure, shortened: as §4

[7] = target: T4, JAK3-JH1 (Homo sapiens, UniProt P52333); test: HTRF-based selectivity assay, JAK3 catalytic domain; format: biochemical; conditions: kinase domain (JH1), ATP 2.12 μM
T4 construct: recombinant purified His or GST-tagged catalytic domain for each enzyme; purchased Carna biosciences 08-046
T4 sequence (P52333 822-1111 limits assumed): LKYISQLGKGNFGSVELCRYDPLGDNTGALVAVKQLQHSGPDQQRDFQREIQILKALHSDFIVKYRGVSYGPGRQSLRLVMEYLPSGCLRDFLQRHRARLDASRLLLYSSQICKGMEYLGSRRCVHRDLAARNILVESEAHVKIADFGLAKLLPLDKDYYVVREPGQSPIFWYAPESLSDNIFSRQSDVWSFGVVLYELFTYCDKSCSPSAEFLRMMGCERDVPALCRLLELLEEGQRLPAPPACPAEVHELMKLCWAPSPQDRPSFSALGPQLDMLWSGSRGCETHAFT
Protocol: as §1

[8] = target: T5, TYK2-JH1 (Homo sapiens, UniProt P29597); test: HTRF-based selectivity assay, TYK2 catalytic domain; format: biochemical; conditions: kinase domain (JH1), ATP 20 μM
T5 construct: recombinant purified His or GST-tagged catalytic domain for each enzyme; made in house
T5 sequence (P29597 897-1176 limits assumed): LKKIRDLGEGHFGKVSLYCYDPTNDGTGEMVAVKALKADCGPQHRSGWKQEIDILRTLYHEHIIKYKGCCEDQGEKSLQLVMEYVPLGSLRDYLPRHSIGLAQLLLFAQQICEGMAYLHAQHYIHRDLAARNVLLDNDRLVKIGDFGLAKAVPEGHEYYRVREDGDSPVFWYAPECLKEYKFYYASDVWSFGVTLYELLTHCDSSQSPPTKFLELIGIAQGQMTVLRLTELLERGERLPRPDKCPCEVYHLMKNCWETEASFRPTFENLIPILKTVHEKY
Protocol: as §1

[9] = system: IFN-γ; test: Selectivity assay (SEAP) IFN-γ reporter cells; format: cell-based; conditions: Homo sapiens, IFN-γ reporter cells on HEK293 background, read-out: Selectivity assays (SEAP) nM or E-Max % IFN-γ
[10] = system: IL-2-pSTAT5; test: STAT phosphorylation assay IL-2-pSTAT5; format: cell-based; conditions: Homo sapiens, 0.25 h; IL-2 (20 ng/ml) 15 min, phospho-STAT5 Western blot normalized to GAPDH; read-out: Selectivity assays (STATs) % Inhibition IL-2-pSTAT5
Protocol: as §2, with “The lysates were then transferred to 1.5 mL Eppendorf tubes and centrifuged for 5 minutes at 10000 rpm at 4° C. and the supernatants either stored at −80° C. or used for protein estimation.” left out
Samples were diluted 5× in cell lysis buffer and total protein concentration was determined in 96-well using Bradford Protein Assay following manufacturer's instructions. […]
as §3

Row | IC50 [1] [nM] | IC50 [2] [µM] | IC50 [4] [µM] | IC50 [5] [µM] | IC50 [6] [µM] | IC50 [7] [µM] | IC50 [8] [µM] | IC50 [9] [nM] | Structure (SMILES) | IC50 [3] [µM] | IC50 [10] [µM]
1 | > 90000 | 30 to 90 | 30 to 90 | < 10 | < 10 | 10 to 30 | 30 to 90 | 30000 to 90000 | O=C(Nc1cc2c(cn1)c(=O)[nH]n2-c1ccccc1)C1CC1 [Compound I-1, N-(3-oxo-1-phenyl-2,3-dihydro-1H-pyrazolo[4,3-c]pyridin-6-yl)cyclopropanecarboxamide] | > 90 | 
2 | 30000 to 90000 | > 90 | < 10 | < 10 | < 10 | < 10 | 10 to 30 | 10000 to 30000 | Cc1cc(Nc2cc3c(cn2)c(=O)[nH]n3-c2ccccc2)nc(C)n1 [Compound I-3, 6-((2,6-dimethylpyrimidin-4-yl)amino)-1-phenyl-1,2-dihydro-3H-pyrazolo[4,3-c]pyridin-3-one] | > 90 | > 90
3 | > 90000 | > 90 | 10 to 30 | < 10 | < 10 | 10 to 30 | 30 to 90 | 30000 to 90000 | COc1cccc(-n2[nH]c(=O)c3cnc(Nc4cc(C)nc(C)n4)cc32)c1 [Compound I-17, 6-((2,6-dimethylpyrimidin-4-yl)amino)-1-(3-methoxyphenyl)-1,2-dihydro-3H-pyrazolo[4,3-c]pyridin-3-one] | > 90 | 30 to 90
